Assay: Compound was evaluated for its ability to displace [3H](+)-pentazocine from sigma receptor in Guinea pig brain

Row | SMILES | Ki
1 | c1ccc([C@]2(N3CCCCC3)CC[C@H]3C[C@H]32)cc1 | 4.45 µM
2 | c1ccc([C@]2(N3CCCCC3)CC[C@@H]3C[C@@H]32)cc1 | 7.28 µM
3 | c1ccc([C@@]2(N3CCCCC3)CC[C@H]3C[C@H]32)cc1 | 1.13 µM
